The values below come from ChEMBL document CHEMBL5291721, “A preclinical secondary pharmacology resource illuminates target-adverse drug reaction associations of marketed drugs” (Nat Commun, 2023).

SMILES strings stand for the structures.

Some targets named below: Mu-type opioid receptor (Homo sapiens, UniProt P35372); D(1A) dopamine receptor (Homo sapiens, UniProt P21728); Histamine H3 receptor (Homo sapiens, UniProt Q9Y5N1).
Test [1] has as its target T1, Amine oxidase [flavin-containing] A (Homo sapiens, UniProt P21397).
T1 sequence (P21397 whole entry): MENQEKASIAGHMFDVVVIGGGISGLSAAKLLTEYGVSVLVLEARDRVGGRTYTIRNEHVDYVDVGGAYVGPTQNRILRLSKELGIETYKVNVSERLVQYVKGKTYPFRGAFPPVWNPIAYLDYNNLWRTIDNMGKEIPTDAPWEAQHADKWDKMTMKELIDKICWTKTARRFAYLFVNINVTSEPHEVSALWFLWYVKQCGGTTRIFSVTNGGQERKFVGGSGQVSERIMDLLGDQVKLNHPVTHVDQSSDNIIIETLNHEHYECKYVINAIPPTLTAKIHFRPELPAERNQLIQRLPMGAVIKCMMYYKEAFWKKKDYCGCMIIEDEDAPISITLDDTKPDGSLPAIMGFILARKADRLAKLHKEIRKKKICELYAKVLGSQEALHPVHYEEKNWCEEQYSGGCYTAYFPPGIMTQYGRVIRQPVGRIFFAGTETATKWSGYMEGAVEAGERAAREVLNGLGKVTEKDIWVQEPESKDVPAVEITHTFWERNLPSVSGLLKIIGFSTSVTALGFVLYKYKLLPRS
The test is classed as functional.

For another test, the target named is T2, Estrogen receptor (Homo sapiens, UniProt P03372).
T2 sequence (P03372 whole entry): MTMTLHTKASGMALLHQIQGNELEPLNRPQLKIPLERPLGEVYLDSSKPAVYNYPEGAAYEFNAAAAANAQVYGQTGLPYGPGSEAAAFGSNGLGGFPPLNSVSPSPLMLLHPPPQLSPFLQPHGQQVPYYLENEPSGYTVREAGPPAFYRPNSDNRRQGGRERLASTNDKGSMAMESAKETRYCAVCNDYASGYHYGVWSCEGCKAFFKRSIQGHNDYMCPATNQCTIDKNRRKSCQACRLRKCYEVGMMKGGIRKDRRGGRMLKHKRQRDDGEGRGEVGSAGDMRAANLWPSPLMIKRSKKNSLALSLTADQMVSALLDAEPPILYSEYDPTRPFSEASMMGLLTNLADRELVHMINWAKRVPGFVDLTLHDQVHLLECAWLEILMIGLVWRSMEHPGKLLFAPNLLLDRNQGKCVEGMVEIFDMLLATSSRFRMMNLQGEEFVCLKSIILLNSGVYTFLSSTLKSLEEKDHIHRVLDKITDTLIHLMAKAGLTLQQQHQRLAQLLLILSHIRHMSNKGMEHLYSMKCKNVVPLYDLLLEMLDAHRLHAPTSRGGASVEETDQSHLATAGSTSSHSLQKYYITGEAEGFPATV

Test [2] has as its target Prostaglandin G/H synthase 1 (Homo sapiens, UniProt P23219). The test is classed as functional.
Another test addresses T3, Thromboxane A2 receptor (Homo sapiens, UniProt P21731).
T3 sequence (P21731 whole entry): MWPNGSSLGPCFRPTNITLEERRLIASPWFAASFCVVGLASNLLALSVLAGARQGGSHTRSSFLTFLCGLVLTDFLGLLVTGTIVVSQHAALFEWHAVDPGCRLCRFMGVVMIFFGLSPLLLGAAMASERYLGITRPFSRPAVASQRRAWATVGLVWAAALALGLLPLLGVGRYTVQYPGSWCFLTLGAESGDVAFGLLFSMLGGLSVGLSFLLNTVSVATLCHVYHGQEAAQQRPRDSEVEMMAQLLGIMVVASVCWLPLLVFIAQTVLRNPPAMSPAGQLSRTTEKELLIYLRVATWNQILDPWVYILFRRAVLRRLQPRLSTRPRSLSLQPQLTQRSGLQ
It is filed as functional, cell-based.

The next test deals with Acetylcholinesterase (Homo sapiens, UniProt P22303). The test is classed as functional.
Sequence of Acetylcholinesterase (P22303 whole entry): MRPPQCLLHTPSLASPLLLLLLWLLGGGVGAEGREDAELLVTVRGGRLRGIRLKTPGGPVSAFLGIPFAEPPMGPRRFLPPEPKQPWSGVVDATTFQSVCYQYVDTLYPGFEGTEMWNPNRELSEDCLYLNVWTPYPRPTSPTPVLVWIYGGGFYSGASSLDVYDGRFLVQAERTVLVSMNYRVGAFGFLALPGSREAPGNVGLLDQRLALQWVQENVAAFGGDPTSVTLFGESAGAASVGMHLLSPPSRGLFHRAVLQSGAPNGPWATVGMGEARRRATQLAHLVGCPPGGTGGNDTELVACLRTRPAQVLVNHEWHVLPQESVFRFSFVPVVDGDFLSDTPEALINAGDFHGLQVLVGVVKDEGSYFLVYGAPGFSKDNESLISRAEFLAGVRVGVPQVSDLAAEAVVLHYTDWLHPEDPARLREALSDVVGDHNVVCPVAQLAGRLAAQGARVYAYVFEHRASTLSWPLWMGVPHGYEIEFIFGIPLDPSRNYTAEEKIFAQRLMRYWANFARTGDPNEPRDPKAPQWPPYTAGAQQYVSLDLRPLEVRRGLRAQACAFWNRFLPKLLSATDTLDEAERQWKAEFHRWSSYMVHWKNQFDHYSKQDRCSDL
For test [3], the target named is Vascular endothelial growth factor receptor 2 (Homo sapiens, UniProt P35968). The test is classed as functional.
Sequence of Vascular endothelial growth factor receptor 2 (P35968 whole entry): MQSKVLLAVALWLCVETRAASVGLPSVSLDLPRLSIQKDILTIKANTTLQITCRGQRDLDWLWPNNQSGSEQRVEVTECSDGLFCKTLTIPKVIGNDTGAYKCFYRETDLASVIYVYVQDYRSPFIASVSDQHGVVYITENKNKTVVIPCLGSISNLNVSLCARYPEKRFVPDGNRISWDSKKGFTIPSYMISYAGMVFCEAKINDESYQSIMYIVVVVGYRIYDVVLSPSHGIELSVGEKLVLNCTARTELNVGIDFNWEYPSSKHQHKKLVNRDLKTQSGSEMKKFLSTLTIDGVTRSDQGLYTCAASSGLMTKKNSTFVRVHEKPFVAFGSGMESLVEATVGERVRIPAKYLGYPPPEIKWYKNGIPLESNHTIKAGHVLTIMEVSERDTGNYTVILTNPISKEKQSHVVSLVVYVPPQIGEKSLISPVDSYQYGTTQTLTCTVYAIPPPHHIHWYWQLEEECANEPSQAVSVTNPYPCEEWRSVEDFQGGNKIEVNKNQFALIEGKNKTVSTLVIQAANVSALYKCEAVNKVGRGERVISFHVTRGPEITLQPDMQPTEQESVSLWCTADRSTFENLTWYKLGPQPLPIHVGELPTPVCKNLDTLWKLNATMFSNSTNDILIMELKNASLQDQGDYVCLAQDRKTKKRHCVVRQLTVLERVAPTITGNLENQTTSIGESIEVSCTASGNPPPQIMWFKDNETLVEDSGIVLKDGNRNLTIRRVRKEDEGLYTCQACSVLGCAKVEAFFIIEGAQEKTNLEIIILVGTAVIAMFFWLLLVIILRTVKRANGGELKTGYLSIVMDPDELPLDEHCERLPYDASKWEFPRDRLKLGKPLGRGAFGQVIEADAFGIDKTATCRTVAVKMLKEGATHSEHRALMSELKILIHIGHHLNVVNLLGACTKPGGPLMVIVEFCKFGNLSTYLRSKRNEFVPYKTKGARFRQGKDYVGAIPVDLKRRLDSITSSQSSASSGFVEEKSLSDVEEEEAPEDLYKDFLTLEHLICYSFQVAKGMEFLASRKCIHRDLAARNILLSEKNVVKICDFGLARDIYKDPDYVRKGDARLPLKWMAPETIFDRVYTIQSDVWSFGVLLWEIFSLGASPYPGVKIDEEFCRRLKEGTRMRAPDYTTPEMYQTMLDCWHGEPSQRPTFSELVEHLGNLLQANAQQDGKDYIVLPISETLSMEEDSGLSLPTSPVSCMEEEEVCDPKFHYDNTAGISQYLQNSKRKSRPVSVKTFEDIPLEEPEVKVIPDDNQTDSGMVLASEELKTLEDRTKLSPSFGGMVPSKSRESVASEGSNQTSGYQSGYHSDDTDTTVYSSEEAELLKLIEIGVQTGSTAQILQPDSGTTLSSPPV
Test [4] deals with T4, Alpha-1A adrenergic receptor (Homo sapiens, UniProt P35348).
T4 sequence (P35348 whole entry): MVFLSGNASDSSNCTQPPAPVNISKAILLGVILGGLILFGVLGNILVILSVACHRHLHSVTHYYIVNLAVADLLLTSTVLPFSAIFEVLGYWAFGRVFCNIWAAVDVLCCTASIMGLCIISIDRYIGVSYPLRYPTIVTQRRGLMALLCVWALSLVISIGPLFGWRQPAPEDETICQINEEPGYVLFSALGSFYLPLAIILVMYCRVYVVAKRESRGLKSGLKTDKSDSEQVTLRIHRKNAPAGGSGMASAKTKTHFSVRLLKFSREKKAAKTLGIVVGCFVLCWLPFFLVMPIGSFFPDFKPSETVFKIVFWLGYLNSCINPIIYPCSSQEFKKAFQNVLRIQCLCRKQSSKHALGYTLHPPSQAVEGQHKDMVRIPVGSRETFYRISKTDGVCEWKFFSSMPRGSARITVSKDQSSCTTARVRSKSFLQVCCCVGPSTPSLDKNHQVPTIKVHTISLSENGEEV
It is filed as functional, cell-based.

Test [5] has as its target T4, Alpha-1A adrenergic receptor. It is filed as functional, cell-based. This is another data set of the same source.
The target in test [6] is T5, 5-hydroxytryptamine receptor 1A (Homo sapiens, UniProt P08908).
T5 sequence (P08908 whole entry): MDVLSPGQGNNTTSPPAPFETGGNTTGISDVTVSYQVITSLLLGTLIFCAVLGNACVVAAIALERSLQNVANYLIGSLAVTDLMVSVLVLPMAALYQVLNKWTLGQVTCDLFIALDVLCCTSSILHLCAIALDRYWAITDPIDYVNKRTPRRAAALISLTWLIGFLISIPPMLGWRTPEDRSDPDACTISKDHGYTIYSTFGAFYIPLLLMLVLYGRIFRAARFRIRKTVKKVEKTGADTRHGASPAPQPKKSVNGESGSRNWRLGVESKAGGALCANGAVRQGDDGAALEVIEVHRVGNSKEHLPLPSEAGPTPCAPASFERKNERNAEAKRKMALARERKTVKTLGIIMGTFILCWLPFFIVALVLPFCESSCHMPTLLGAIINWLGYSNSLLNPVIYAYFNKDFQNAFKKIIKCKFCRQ

The target in test [7] is Sodium-dependent noradrenaline transporter (Homo sapiens, UniProt P23975).
Test [8] addresses Sodium-dependent dopamine transporter (Homo sapiens, UniProt Q01959).
Also: assay procedure not described here.

Sequence of Mu-type opioid receptor (P35372 whole entry): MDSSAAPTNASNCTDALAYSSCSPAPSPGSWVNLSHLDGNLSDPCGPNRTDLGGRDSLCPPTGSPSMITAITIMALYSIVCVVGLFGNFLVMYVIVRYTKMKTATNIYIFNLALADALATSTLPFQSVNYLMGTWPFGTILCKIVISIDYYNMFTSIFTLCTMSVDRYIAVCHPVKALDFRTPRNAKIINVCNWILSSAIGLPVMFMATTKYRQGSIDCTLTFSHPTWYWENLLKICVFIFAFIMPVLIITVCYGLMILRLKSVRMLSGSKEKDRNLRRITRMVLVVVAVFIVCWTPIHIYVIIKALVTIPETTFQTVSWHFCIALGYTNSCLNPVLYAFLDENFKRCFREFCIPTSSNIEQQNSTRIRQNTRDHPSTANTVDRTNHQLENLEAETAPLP
Sequence of Sodium-dependent dopamine transporter (Q01959 whole entry): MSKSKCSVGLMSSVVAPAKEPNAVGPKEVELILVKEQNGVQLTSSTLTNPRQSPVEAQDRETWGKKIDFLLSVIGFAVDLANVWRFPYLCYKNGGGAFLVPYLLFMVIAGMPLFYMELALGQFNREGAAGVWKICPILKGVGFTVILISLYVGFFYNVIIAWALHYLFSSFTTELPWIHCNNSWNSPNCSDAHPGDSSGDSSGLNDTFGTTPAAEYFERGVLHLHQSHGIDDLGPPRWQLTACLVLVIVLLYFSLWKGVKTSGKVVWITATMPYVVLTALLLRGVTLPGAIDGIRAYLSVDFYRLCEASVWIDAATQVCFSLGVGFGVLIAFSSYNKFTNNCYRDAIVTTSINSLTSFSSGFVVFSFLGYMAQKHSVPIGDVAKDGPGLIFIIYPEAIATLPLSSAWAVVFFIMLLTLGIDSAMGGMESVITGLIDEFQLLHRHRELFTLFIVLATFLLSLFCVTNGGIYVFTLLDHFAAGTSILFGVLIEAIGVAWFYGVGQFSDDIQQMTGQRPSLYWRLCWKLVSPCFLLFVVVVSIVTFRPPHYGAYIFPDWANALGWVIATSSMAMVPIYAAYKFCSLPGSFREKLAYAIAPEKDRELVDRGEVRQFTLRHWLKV
Sequence of Prostaglandin G/H synthase 1 (P23219 whole entry): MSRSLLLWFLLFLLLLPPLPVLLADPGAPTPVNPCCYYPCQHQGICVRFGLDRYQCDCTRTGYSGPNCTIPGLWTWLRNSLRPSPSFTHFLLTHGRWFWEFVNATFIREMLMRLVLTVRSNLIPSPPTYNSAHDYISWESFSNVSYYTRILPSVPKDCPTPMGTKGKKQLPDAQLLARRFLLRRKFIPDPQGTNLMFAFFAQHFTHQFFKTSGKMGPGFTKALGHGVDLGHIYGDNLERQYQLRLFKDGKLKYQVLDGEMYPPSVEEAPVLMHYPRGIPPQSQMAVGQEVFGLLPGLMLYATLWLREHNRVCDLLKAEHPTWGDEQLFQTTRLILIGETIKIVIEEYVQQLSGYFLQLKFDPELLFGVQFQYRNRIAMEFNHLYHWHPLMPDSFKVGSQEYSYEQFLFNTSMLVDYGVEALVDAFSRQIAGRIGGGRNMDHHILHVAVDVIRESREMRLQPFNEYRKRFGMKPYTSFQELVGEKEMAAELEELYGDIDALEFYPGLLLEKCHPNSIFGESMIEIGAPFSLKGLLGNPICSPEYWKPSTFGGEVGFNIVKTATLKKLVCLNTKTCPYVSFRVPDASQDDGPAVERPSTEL
Sequence of D(1A) dopamine receptor (P21728 whole entry): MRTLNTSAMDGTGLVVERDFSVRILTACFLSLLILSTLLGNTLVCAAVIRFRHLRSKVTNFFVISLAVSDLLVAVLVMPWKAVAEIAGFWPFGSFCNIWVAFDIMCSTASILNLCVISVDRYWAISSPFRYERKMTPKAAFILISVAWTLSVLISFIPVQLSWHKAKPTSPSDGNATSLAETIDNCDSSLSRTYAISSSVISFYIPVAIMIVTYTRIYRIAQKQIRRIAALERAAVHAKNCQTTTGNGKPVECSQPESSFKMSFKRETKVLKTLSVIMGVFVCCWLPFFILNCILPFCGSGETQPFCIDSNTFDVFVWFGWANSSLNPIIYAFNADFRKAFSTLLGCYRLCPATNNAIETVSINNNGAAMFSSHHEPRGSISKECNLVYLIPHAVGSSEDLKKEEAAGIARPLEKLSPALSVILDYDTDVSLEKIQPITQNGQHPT
Sequence of Histamine H3 receptor (Q9Y5N1 whole entry): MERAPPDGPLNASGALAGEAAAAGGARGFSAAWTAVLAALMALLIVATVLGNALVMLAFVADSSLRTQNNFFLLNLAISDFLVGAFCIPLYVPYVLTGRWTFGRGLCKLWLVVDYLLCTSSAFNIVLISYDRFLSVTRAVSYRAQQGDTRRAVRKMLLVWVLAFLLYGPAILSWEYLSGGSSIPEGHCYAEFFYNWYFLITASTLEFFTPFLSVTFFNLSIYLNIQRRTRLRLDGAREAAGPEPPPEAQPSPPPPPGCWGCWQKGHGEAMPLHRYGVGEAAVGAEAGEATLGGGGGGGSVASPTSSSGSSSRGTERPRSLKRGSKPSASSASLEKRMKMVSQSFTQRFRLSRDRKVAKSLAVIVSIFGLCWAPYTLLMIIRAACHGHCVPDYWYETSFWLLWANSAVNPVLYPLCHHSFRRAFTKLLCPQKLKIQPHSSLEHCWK

For the compound `C[C@@H]1O[C@@H](O[C@H]2C[C@@H](O)[C@]3(CO)[C@H]4[C@H](O)C[C@]5(C)[C@@H](C6=CC(=O)OC6)CC[C@]5(O)[C@@H]4CC[C@]3(O)C2)[C@H](O)[C@H](O)[C@H]1O` [OUABAIN], the AC50 (in test [1]; on Mu-type opioid receptor; on Estrogen receptor; in test [2]; on Thromboxane A2 receptor; on Acetylcholinesterase) was > 30 µM in each case. The concentration at half-maximal activity (AC50) (in [3]; in [4]; at D(1A) dopamine receptor; in test [5]; in [6]; in [7]) was > 30 µM each time. Also, the AC50 (in test [8]; at Histamine H3 receptor) was > 30 µM in each case.

Take `COC(=O)N[C@H](C(=O)N1CC2(CC2)C[C@H]1c1ncc(-c2ccc3c(c2)C(F)(F)c2cc(-c4ccc5nc([C@@H]6[C@H]7CC[C@H](C7)N6C(=O)[C@@H](NC(=O)OC)C(C)C)[nH]c5c4)ccc2-3)[nH]1)C(C)C`: the AC50 (in [1]; on Mu-type opioid receptor; at Estrogen receptor; in [2]; on Thromboxane A2 receptor; on Acetylcholinesterase) was > 30 µM in each case. Further, the AC50 (in test [3]; in test [4]; at D(1A) dopamine receptor; in test [5]; in test [6]; in [7]) was > 30 µM throughout. Moreover, the AC50 (in [8]; on Histamine H3 receptor) was > 30 µM throughout.

For `Oc1ccc(OCc2ccccc2)cc1` [MONOBENZONE], the AC50 (as a rule, the concentration giving half of the maximal activity seen) was > 30 µM in test [1]; > 30 µM on Mu-type opioid receptor; > 30 µM at Estrogen receptor; 11 µM in [2]; > 30 µM at Thromboxane A2 receptor; > 30 µM on Acetylcholinesterase. Also, the concentration at half-maximal activity (AC50) in [3] was > 30 µM; in test [4] it was > 30 µM; at D(1A) dopamine receptor, > 30 µM; in test [5] it was > 30 µM; in test [6] it was > 30 µM; in test [7], 6.96 µM. In addition, the values for the AC50 (in test [8]; at Histamine H3 receptor) were 8.56 µM and > 30 µM, respectively.

Turning to `OCc1ccccc1` [BENZYL ALCOHOL], the concentration at half-maximal activity (AC50) (in [1]; at Mu-type opioid receptor; at Estrogen receptor; in test [2]; at Thromboxane A2 receptor; on Acetylcholinesterase) was > 30 µM throughout. In addition, the AC50 (in test [3]; in test [4]; at D(1A) dopamine receptor; in test [5]; in [6]; in test [7]) was > 30 µM throughout. In addition, the AC50 (in test [8]; at Histamine H3 receptor) was > 30 µM throughout.

Turning to `CC(C)N1CCN(c2ccc(OCC3COC(Cn4cncn4)(c4ccc(Cl)cc4Cl)O3)cc2)CC1` (configuration not stated) [TERCONAZOLE], the AC50 is > 30 µM in [1]; > 30 µM at Mu-type opioid receptor; > 30 µM at Estrogen receptor; > 30 µM in test [2]; 20 µM at Thromboxane A2 receptor; 16.5 µM on Acetylcholinesterase. The AC50 was > 30 µM in test [3]; 16 µM in [4]; 25.2 µM at D(1A) dopamine receptor; > 30 µM in test [5]; > 30 µM in test [6]; > 30 µM in test [7]. Moreover, the half-maximal activity concentration (AC50) in [8] came to 7.14 µM; on Histamine H3 receptor, 0.096 µM.

Consider `Cc1c(C(C)C)c(=O)n(-c2ccccc2)n1C` [PROPYPHENAZONE], for which the AC50 (in test [1]; at Mu-type opioid receptor; at Estrogen receptor; in [2]; on Thromboxane A2 receptor; on Acetylcholinesterase) was > 30 µM each time. Besides, the AC50 (in test [3]; in test [4]; on D(1A) dopamine receptor; in test [5]; in test [6]; in test [7]) was > 30 µM throughout. Also, the AC50 (in test [8]; on Histamine H3 receptor) was > 30 µM throughout.

In the case of `CC(C)=CCC/C(C)=C/CC/C(C)=C/CC/C(C)=C/CC1=C(C)C(=O)c2ccccc2C1=O` [MENATETRENONE], the AC50 in test [1] is > 30 µM; on Mu-type opioid receptor, > 30 µM; at Estrogen receptor, > 30 µM; in test [2], 13.5 µM; on Thromboxane A2 receptor it was > 30 µM; on Acetylcholinesterase, > 30 µM. Also, the AC50 in [3] was > 30 µM; in test [4] it was > 30 µM; at D(1A) dopamine receptor, > 30 µM; in test [5], > 30 µM; in [6], 22.5 µM; in [7], > 30 µM. The AC50 (in test [8]; at Histamine H3 receptor) was > 30 µM throughout.

Consider `CO[C@H]1/C=C/O[C@@]2(C)Oc3c(C)c(O)c4c(c3C2=O)C2=NC3(CCN(CC(C)C)CC3)NC2=C(NC(=O)/C(C)=C\C=C\[C@H](C)[C@H](O)[C@@H](C)[C@@H](O)[C@@H](C)[C@H](OC(C)=O)[C@@H]1C)C4=O` [RIFABUTIN], for which the half-maximal activity concentration (AC50) in [1] was > 30 µM; at Mu-type opioid receptor, > 30 µM; at Estrogen receptor, > 30 µM; in test [2] it was 17.7 µM; at Thromboxane A2 receptor, > 30 µM; at Acetylcholinesterase it was > 30 µM. Also, the AC50 (in [3]; in test [4]; at D(1A) dopamine receptor; in test [5]; in test [6]; in test [7]) was > 30 µM throughout. For the same compound, the half-maximal activity concentration (AC50) (in test [8]; at Histamine H3 receptor) was > 30 µM each time.
